Assay results as given in ChEMBL document CHEMBL2021894, “The Discovery of VX-745: A Novel and Selective p38α Kinase Inhibitor” (ACS Med Chem Lett, 2011).

How the values were obtained:
[1] = target: T1, Mitogen-activated protein kinase 14 (Homo sapiens, UniProt Q16539); experiment: Inhibition of p38alpha kinase using KRELVEPLTPSGEAPNQALLR as substrate for 20 mins by lactate dehydrogenase-coupled spectrophotometric assay
[2] = target: T1, Mitogen-activated protein kinase 14; experiment: Inhibition of p38alpha in human PBMC assessed as inhibition of LPS-induced IL1beta production after 16 to 18 hrs by ELISA
[3] = target: T1, Mitogen-activated protein kinase 14; experiment: Inhibition of p38alpha in human PBMC assessed as inhibition of LPS-induced TNFalpha production after 16 to 18 hrs by ELISA

T1 sequence (Q16539 whole entry): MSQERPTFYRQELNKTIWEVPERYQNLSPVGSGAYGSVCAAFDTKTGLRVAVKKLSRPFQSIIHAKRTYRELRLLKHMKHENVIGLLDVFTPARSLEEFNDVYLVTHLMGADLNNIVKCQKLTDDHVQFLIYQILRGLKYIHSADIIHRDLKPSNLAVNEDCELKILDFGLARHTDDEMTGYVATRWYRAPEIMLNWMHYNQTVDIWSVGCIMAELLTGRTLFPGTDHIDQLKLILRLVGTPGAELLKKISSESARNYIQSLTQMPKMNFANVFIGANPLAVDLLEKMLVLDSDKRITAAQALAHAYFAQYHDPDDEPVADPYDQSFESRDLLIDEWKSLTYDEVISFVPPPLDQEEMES

Row | IC50 [1] | IC50 [2] | IC50 [3] | SMILES
1 | 1400 nM | 370 nM | – | Cc1ccc(Sc2ccc3c(-c4c(Cl)cccc4Cl)c(=O)ncn3n2)cc1
2 | 180 nM | 180 nM | 160 nM | Cc1cc(Cl)ccc1Sc1ccc2c(-c3c(Cl)cccc3Cl)c(=O)ncn2n1
3 | 360 nM | 140 nM | 490 nM | O=c1ncn2nc(Sc3ccccc3O)ccc2c1-c1c(Cl)cccc1Cl
4 | 750 nM | 980 nM | 2800 nM | CCc1ccccc1Sc1ccc2c(-c3c(Cl)cccc3Cl)c(=O)ncn2n1
5 | 1400 nM | – | – | Cc1cccc(Sc2ccc3c(-c4c(Cl)cccc4Cl)c(=O)ncn3n2)c1
6 | 220 nM | 280 nM | 1200 nM | Nc1cc(F)ccc1Sc1ccc2c(-c3c(Cl)cccc3Cl)c(=O)ncn2n1
7 | 200 nM | 330 nM | 3700 nM | Cc1ccccc1Sc1ccc2c(-c3c(Cl)cccc3Cl)c(=O)ncn2n1
8 | 1900 nM | 2400 nM | 3500 nM | Cc1ccc(Sc2ccc3c(-c4c(Cl)cccc4Cl)c(=O)ncn3n2)cc1C
9 | 260 nM | 690 nM | 320 nM | Cc1ccc(Sc2ccc3c(-c4c(Cl)cccc4Cl)c(=O)ncn3n2)c(C)c1
10 | 36 nM | 53 nM | 275 nM | O=c1ncn2nc(Sc3ccc(F)cc3Cl)ccc2c1-c1c(Cl)cccc1Cl

Further lines, the compound ahead of its results:

Row | SMILES | IC50 [1] | IC50 [2] | IC50 [3]
11 | O=c1ncn2nc(Sc3ccccc3)ccc2c1-c1c(Cl)cccc1Cl | 250 nM | 400 nM | 460 nM
12 | O=c1ncn2nc(Sc3ccc(Cl)c(Cl)c3)ccc2c1-c1c(Cl)cccc1Cl | 800 nM | – | 1200 nM
13 | O=c1ncn2nc(Sc3cccc(Cl)c3)ccc2c1-c1c(Cl)cccc1Cl | 280 nM | – | –
14 | O=c1ncn2nc(Sc3cccc(F)c3)ccc2c1-c1c(Cl)cccc1Cl | – | 440 nM | 720 nM
15 | O=c1ncn2nc(Sc3ccccc3)ccc2c1-c1ccc(Cl)cc1Cl | 5000 nM | 20000 nM | 20000 nM
16 | O=c1ncn2nc(Sc3ccccc3)ccc2c1-c1ccccc1 | > 20000 nM | – | –
17 | Cc1ccccc1-c1c(=O)ncn2nc(Sc3ccccc3)ccc12 | 4400 nM | – | 9700 nM
18 | COc1ccccc1-c1c(=O)ncn2nc(Sc3ccccc3)ccc12 | 12000 nM | 2800 nM | –
19 | O=c1ncn2nc(Sc3ccccc3)ccc2c1-c1ccccc1C(F)(F)F | 11000 nM | 2100 nM | > 20000 nM
20 | O=c1ncn2nc(Sc3ccccc3)ccc2c1-c1ccccc1Cl | 4100 nM | – | –
21 | O=c1ncn2nc(Sc3ccccc3)ccc2c1-c1ccc(F)cc1 | > 20000 nM | – | > 20000 nM
22 | O=c1ncn2nc(Sc3ccccc3)ccc2c1-c1c(F)cccc1C(F)(F)F | 1700 nM | 1000 nM | 3100 nM
23 | O=c1ncn2nc(Sc3ccccc3)ccc2c1-c1c(F)cccc1F | 3500 nM | 3700 nM | 15300 nM
24 | O=c1ncn2nc(Sc3ccc(F)cc3)ccc2c1-c1c(Cl)cccc1Cl | 123 nM | – | 293 nM
25 | O=c1ncn2nc(Sc3ccc(F)c(Cl)c3)ccc2c1-c1c(Cl)cccc1Cl | 500 nM | 180 nM | 480 nM
